This is an account of results in US20220186190A1, “MODELING ONCOLOGY ON DEMAND” (The Board of Trustees of the University of Illinois, priority 2019, published 2022).

In one data set the test system is OCM HCC cell lines. The experiment in a line: MTT chemotherapeutic screening, OCM HCC cell line. In kind it is cell-based, pig. Conditions: 72 hours exposure. The method, then:
(§1) Cells (1×1O^4 cells/well) were cultured in 200 ? DMEM+10% FBS overnight in 96 well plates. The following day, culture media was replaced with fresh media supplemented with one of 10 varying concentrations of each chemotherapeutic compound. Sorafenib, doxorubicin, mitomycin C, and 5-Fluorouracil (5-FU) were prepared from a stock solution in a 10-point serial dilution curve, in DMSO, and added at 1:100 to culture media (final concentration of DMSO was 1% for all conditions). As platinum complexes are inactivated by DMSO, cisplatin stock solution was 3.33 mM in water and the stock was used to prepare all dilutions. Sorafenib and mitomycin C were tested from 0.5-100 μM, doxorubicin from 0.1-20 μM, cisplatin from 1-200 μM, and 5-FU from 1-500 μM in order to assay concentrations that are relevant for clinically used dosages and that allow for calculation of the half maximal inhibitory concentration (IC50) for each compound. 96 well plates with each cell line and chemotherapeutic concentration in triplicate were prepared for time points 0, 24, 48, and 72 hours to observe a dose response overtime. For the 3-(4,5-dimethylthiazol-2-yl)-2,5-diphenyltetrazolium bromide (MTT) assay, 100 ? of fresh media was replaced at each time point, 10 ? of 5 mg/ml MTT added to each well and incubated for 4 hours at 37° C. 100 ? for an SDS/HCl solution (1 g SDS/10 ml 0.1 HCl) was then added to solubilize the resulting formazan dye and the plates incubated an additional 4 h at 37° C. Absorbance at 570 nm was read using a BioTek 800 TS Absorbance Reader (BioTek). Results are expressed in percentage, relative to the absorbance values for each cell line at time 0.
(§2) OCM and human HCC cell lines display similar sensitivities to four FDA approved cytostatic (sorafenib) and cytotoxic (doxorubicin, cisplatin, mitomycin C) chemotherapeutic agents used to treat HCC clinically, either systemically or via transarterial chemoembolization (TACE), and one shown to be ineffective (5-FU) in clinical settings.

The test system of another data set is Hepal-6. The experiment in a line: MTT chemotherapeutic screening, murine HCC cell line Hepal-6. In kind it is cell-based. Conditions: for IC50: Hepal-6, MTT, 72 hours exposure. The method, then:
as §1, §2

The next data set relates to HepG2. As to the kind of experiment: MTT chemotherapeutic screening, human HCC cell line HepG2. Conditions: 72 hours exposure. The class given is cell-based. The protocol: as §1, §2
Data set [1] can be described thus: In vivo PK and tumor specific uptake of systemically administered DON prodrugs in Oncopigs bearing SQ soft-tissue sarcomas. More on the design: species or system pig. Conditions: for AUC / Cmax: systemically administered prodrug. The text has this:
(§3) OCM soft-tissue sarcoma cell lines were used to assess tumor cell specific uptake and conversion of 6-Diazo-5 -oxo-1-norleucine (DON) prodrugs. […] In addition, in vivo investigation of tumor specific uptake and temporal PK of systemically administered prodrugs in Oncopigs bearing SQ soft-tissue sarcomas validated the capability to employ the tumor-bearing OCM for chemotherapy drug pharmacologic studies (FIGS. 13A and 13B and Table 8).

Data set [2] relates to Oncopig soft tissue sarcoma tumor cells. As to the kind of experiment: In vitro partitioning and conversion of DON prodrugs to DON in Oncopig soft tissue sarcoma tumor cells. As to conditions: FIGS. 12A-12D. The class given is in vitro ADME, pig.
Text: FIGS. 12A-12D are graphs showing in vitro partitioning and conversion of 6-diazo-5-oxo-1-norleucine (DON) prodrugs to DON in Oncopig soft tissue sarcoma tumor cells vs. plasma. […] However, when delivered as a prodrug (FIGS. 12B-12D), the level of active compound (DON, y-axis) is much higher in the cells than the cell supernatant.
as §3

In general, IC50 refers to the concentration that gives 50% inhibition. Read a high IC50 as a need for much substance. Regarding `COc1cccc2c1C(=O)c1c(O)c3c(c(O)c1C2=O)C[C@@](O)(C(=O)CO)C[C@@H]3O[C@H]1C[C@H](N)[C@H](O)[C@H](C)O1` [Doxorubicin, doxorubicin], the figures for the IC50 with OCM HCC cell lines (Sus scrofa), in the data set with Hepal-6 (Mus musculus) and with HepG2 (Homo sapiens) were 0.08 µM, 0.53 µM and 0.23 µM, respectively.

As for `CO[C@@]12[C@H](COC(N)=O)C3=C(C(=O)C(C)=C(N)C3=O)N1C[C@@H]1N[C@@H]12` [Mitomycin C, mitomycin C], the results for the IC50 in the data set with OCM HCC cell lines, with Hepal-6 and in the data set on HepG2 were 0.48 µM, 0.61 µM and 0.57 µM, respectively.

Regarding `N.N.[Cl][Pt][Cl]` [Cisplatin, cisplatin], the IC50 stood at 5.38 µM in the data set on OCM HCC cell lines, 2.16 µM in the data set on Hepal-6 and 5.6 µM in the data set with HepG2.

Consider `[N-]=[N+]=CC(=O)CC[C@H](N)C(=O)O` [DON, 6-diazo-5-oxo-1-norleucine], for which the “Tumor:Plasma AUC ratio” value in data set [1] worked out at 1.5. Moreover, in data set [1] (FIGS. 13A and 13B), the “selective in vivo partitioning (tumor vs. plasma)” value is reported as “selective in vivo partitioning of DON to tumor cells”. In data set [1] (Plasma), the AUC was 2852 h*pmol/ml or g and the Cmax is 530 pmol/ml or g. In data set [1] (Tumor), the AUC is listed as 4238 h*pmol/ml or g and the Cmax is 1019 pmol/ml or g. Besides, the “level of DON in cells vs. cell supernatant” value in data set [2] was “high levels are observed in the cell supernatant, with small amounts entering the cells”.

As for `CNC(=O)c1cc(Oc2ccc(NC(=O)Nc3ccc(Cl)c(C(F)(F)F)c3)cc2)ccn1` [Sorafenib], the IC50 came to 10.4 µM in the data set with OCM HCC cell lines (Sus scrofa), 4.98 µM in the data set on Hepal-6 (Mus musculus) and 8.86 µM in the data set with HepG2 (Homo sapiens).

For `O=c1[nH]cc(F)c(=O)[nH]1` [5-FU, 5-Fluorouracil], the IC50 was found to be 14.5 µM in the data set on OCM HCC cell lines (Sus scrofa), 1.82 µM in the data set with Hepal-6 (Mus musculus) and 18.3 µM in the data set on HepG2 (Homo sapiens). The “higher susceptibility of murine HCC lines versus OCM and human lines” value in the data set with Hepal-6 (Hepal-6 compared with OCM and human HCC lines) amounted to 10 fold.
